The values that follow come from patent publication US20160338955A1, “ANTIGEN-SPECIFIC IMMUNOTHERAPY USING TOLERIZING LIPOSOMES” (PLS-Design GmbH, priority 2015, published 2016).

Values after ≈ are worked out from the molar mass of the structure shown. Read-outs that look alike come from different tables or passages of the source.

Data set [1] concerns experimental autoimmune encephalomyelitis. The following applies: i.p. 5 μg/kg every 2 days; cited from earlier work.
Data set [2] deals with Langerhans cells (LCs) and dermal dendritic cells (DDCs). The following applies: LCs and DDCs primed in vitro; cited from earlier work.
For data set [3] the following is noted: rat, in vivo; cited from earlier work.
The conditions of data set [4]: cited from earlier work.
The conditions of data set [5]: humans; cited from earlier work.
A short description of a further data set: Solubility. The class given is physicochemical. The procedure: In water, the solubility of OVA is about one gram per ml of water. Methylated BSA (mBSA) has been used for immunization at a concentration of 50 mg/ml of 0.9% NaCl (Gent et al., 2014).
In water DexP (MW 516.4) is soluble at a concentration of 50 mg/ml (product information of Santa Cruz Biotechnology), in PBS at a concentration of at least 25 mg/ml (Anderson et al., 2010), and in 10 mM HEPES and 135 mM NaCl, pH 6.7, at a concentration of at least 50 mg/ml (Koning et al., 2006).

Data set [6] in a line: Release of calcitriol from PLGA-PEG-PLGA hydrogels. It is filed as physicochemical. The protocol: The biodegradable PLGA-PEG-PLGA triblock polymer described in this example has a PLG/PEG weight ratio of 2.3 (70/30), and a lactide/glycolide molar ratio of approx. 15/1. Synthesis of the triblock copolymer is performed as described in Example 2.1. An aliquot of 20 μl of a stock solution of calcitriol (2 mg/ml; 4.8 mM) in absolute ethanol (Cayman/Biomol GmbH) is combined with 160 μl of 25% gel solution and 20 μl of 10×PBS (final concentration of calcitriol: 0.2 mg/ml or 0.48 mM; final concentration of ethanol: 10%).
The mixture of 5.1.1 is incubated for 2 minutes at 37° C. to induce gelling and overlayed with 200 μl of 1×PBS. At frequent time points the supernatant is removed by pipetting and stored at 4° C. The removed supernatant is replaced by fresh 200 μl of 1×PBS. Controls of the same concentration of calcitriol in 1×PBS without gel are incubated and sampled in parallel.
After 48 hours the samples and controls are analysed using a Vitamin D ELISA kit, according to the manual of the manufacturer (Euroimmun AG, Luebeck). The assay is applicable for the determination of 25-0H vitamin D3 and other hydroxylated vitamin D3 molecules, and sufficiently linear from 4.0 to 120 ng/ml of 25-0H vitamin D3 (cross reactivity with calcitriol: 45%).
In brief, 20 μl of diluted samples are mixed with 230 μl of sample buffer containing a biotin-labed 25-0H vitamin D derivative. 200 μl of the mixture are transferred to an ELISA well of an 8-well strip and incubated at room temperature for 2 hours. The wells are washed with 3×300 μl washing buffer. Peroxidase labelled steptavidin-conjugate (100 μl) is added and incubated for a further hour. The well is again washed 3× with 300 μl washing buffer. Tetramethyl-benzidine (100 μl) substrate solution is added and developed until sufficient coloring. The reaction is stopped by addition of 100 μl 0.5 M sulphuric acid and measured spectrometrically at 420 nm with reference 650 nm.

Take `C=C1/C(=C\C=C2/CCC[C@]3(C)[C@@H]([C@H](C)CCCC(C)(C)O)CC[C@@H]23)C[C@@H](O)C[C@@H]1O` [calcitriol, 1α,25-dihydroxyvitamin D3]: the “treated mice in which appearance of paralysis was prevented” value in data set [1] was 70%. In addition, in data set [2], the “calcitriol concentration required to effectively induce FoxP3(+)Tregs and FoxP3(−)IL-10(+)TR1 cells” value is 2.5 µM. For the same compound, the “serum level of calcitriol to be kept below to avoid toxicity” value in data set [3] is given as “below 250 ng/ml”. Besides, the “calcitriol dose that can be administered as single bolus i.p. injection” value in data set [4] (in 0.2 ml normal saline) is recorded as “up to 500 ng/mouse”. For the same compound, the “calcitriol dose above which mice become hypercalcemic on day 2 or 3” value in data set [4] (single bolus i.p.) is recorded as “higher than 750 ng/mouse”. The “single oral dose relatively well tolerated (grade 1 to 2 adverse events)” value in data set [5] is recorded as “up to 165 μg”. Besides, the solubility (as a rule, how much of the substance goes into solution per volume) in the data set “Solubility” (1:5 ethanol:PBS, pH 7.2, aqueous with cosolvent or surfactant or cyclodextrin, read-out: solubility in a 1:5 solution of ethanol:PBS, pH 7.2) is roughly 0.15 mg/mL (≈ 0.36 mM); in the data set “Solubility” (ethanol, organic solvent or mixture, read-out: solubility in ethanol) it was roughly 50 mg/mL (≈ 120 mM). For the same compound, the hydrogel-embedded calcitriol released result in data set [6] (after 12 hours) is recorded as “approx. 45%”; in data set [6] (after 24 hours) it was “approx. 65%”; in data set [6] (after 48 hours), “approx. 85%”; in data set [6] (within the first 2 hours), “approx. 15%”.
